For 2 molecules, pest or weed control and plant injury results are on record in patent US12077503B2, “Substituted cyclic amides and their use as herbicides” (FMC CORPORATION, priority 2015, dated 2024).

Where two headings read alike, the source gives them in different places.

Assay type in all cases: in vivo
For experiment [1], the system named is pigweed (Amaranthus retroflexus). The experiment in a line: Test A preemergence. The settings on record: Amaranthus retroflexus, pre-emergence, 240 h, preemergence, read-out: Pigweed plant response rating; for pest or weed control at 125 g/ha: 125 g ai/ha, approx. 10 d; for pest or weed control at 500 g/ha: 500 g ai/ha.
Experiment [2] concerns barnyardgrass (Echinochloa crus-galli). The experiment in a line: Test A preemergence. Particulars: Echinochloa crus-galli, pre-emergence, 240 h, preemergence, read-out: Barnyardgrass plant response rating; for pest or weed control at 125 g/ha: 125 g ai/ha, approx. 10 d; for pest or weed control at 500 g/ha: 500 g ai/ha. In short, it runs like this: (§1)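 Visual injury scores from 0, no effect, to 100, complete control, were assigned versus untreated controls roughly 10 d after treatment in the greenhouse. Test chemicals, formulated with surfactant in a non-phytotoxic solvent, were applied to planted seeds as a preemergence soil spray or postemergence to one- to two-leaf plants 2 to 10 cm tall, in loam–sand soil.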

The test system of experiment [3] is giant foxtail (Setaria faberii). The experiment in a line: Test A preemergence. The settings on record: Setaria faberi, pre-emergence, 240 h, preemergence, read-out: Foxtail, Giant plant response rating; for pest or weed control at 125 g/ha: 125 g ai/ha, approx. 10 d; for pest or weed control at 500 g/ha: 500 g ai/ha. In short, it runs like this:
as §1

Experiment [4] concerns ragweed (common ragweed, Ambrosia elatior). Put plainly: Test A preemergence. The settings on record: Ambrosia artemisiifolia, pre-emergence, 240 h, preemergence, read-out: Ragweed plant response rating; for pest or weed control at 125 g/ha: 125 g ai/ha, approx. 10 d; for pest or weed control at 500 g/ha: 500 g ai/ha. In short, it runs like this: as §1
The subject of experiment [5] is Kochia (Kochia scoparia). The experiment in a line: Test A preemergence. The settings on record: Bassia scoparia, pre-emergence, 240 h, preemergence, read-out: Kochia plant response rating; for pest or weed control at 125 g/ha: 125 g ai/ha, approx. 10 d; for pest or weed control at 500 g/ha: 500 g ai/ha. In short, it runs like this: as §1
Experiment [6] has as its system ryegrass, Italian (Italian ryegrass, Lolium multiflorum). The experiment in a line: Test A preemergence. Particulars: Lolium multiflorum, pre-emergence, 240 h, preemergence, read-out: Ryegrass, Italian plant response rating; for pest or weed control at 125 g/ha: 125 g ai/ha, approx. 10 d; for pest or weed control at 500 g/ha: 500 g ai/ha. In short, it runs like this:
as §1

The test system of experiment [7] is barnyardgrass (Echinochloa crus-galli). The experiment in a line: Test A postemergence. Particulars: Echinochloa crus-galli, post-emergence, 240 h, postemergence, read-out: Barnyardgrass plant response rating; for pest or weed control at 125 g/ha: 125 g ai/ha, visual injury on 0 to 100 scale (0 no effect, 100 complete control), approx. 10 d; for pest or weed control at 500 g/ha: 500 g ai/ha, 0 to 100 scale, 0 is no effect, 100 is complete control. In short, it runs like this:
as §1

The subject of experiment [8] is corn (Zea mays). Put plainly: Test A postemergence. The settings on record: Zea mays, post-emergence, 240 h, postemergence, read-out: Corn plant response rating; for plant injury at 125 g/ha: 125 g ai/ha, visual injury on 0 to 100 scale (0 no effect, 100 complete control), approx. 10 d; for plant injury at 500 g/ha: 500 g ai/ha, 0 to 100 scale, 0 is no effect, 100 is complete control. In short, it runs like this:
as §1

For experiment [9], the system named is ragweed (common ragweed, Ambrosia elatior). The experiment in a line: Test A postemergence. The settings on record: Ambrosia artemisiifolia, post-emergence, 240 h, postemergence, read-out: Ragweed plant response rating; for pest or weed control at 125 g/ha: 125 g ai/ha, visual injury on 0 to 100 scale (0 no effect, 100 complete control), approx. 10 d; for pest or weed control at 500 g/ha: 500 g ai/ha, 0 to 100 scale, 0 is no effect, 100 is complete control. In short, it runs like this:
as §1

The subject of experiment [10] is Galium (catchweed bedstraw, Galium aparine). The experiment in a line: Test A postemergence. The settings on record: Galium, post-emergence, 240 h, postemergence, read-out: Galium plant response rating; for pest or weed control at 125 g/ha: 125 g ai/ha, visual injury on 0 to 100 scale (0 no effect, 100 complete control), approx. 10 d; for pest or weed control at 500 g/ha: 500 g ai/ha, 0 to 100 scale, 0 is no effect, 100 is complete control. In short, it runs like this: as §1

Experiment [11] has as its system sedge, umbrella (small-flower umbrella sedge, Cyperus difformis). Put plainly: Test B flooded paddy test. The settings on record: Cyperus difformis, 250 g ai/ha, Flood; 0 to 100 scale where 0 is no effect and 100 is complete control; read-out: Sedge, Umbrella plant response rating. The essentials: (§2)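 Compound goes directly into floodwater once pots are flooded 3 cm above soil, targeting plants at two leaves; the water depth is then held for the test duration. Plants sit 13–15 d in a greenhouse and are rated visually, 100 denoting complete control.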

In experiment [12] the test system is barnyardgrass (Echinochloa crus-galli). The experiment in a line: Test B flooded paddy test. Particulars: Echinochloa crus-galli, 250 g ai/ha, Flood; 0 to 100 scale where 0 is no effect and 100 is complete control; read-out: Barnyardgrass plant response rating. The essentials:
as §2

Experiment [13] concerns rice (Oryra sativa). Put plainly: Test B flooded paddy test. Particulars: Oryza sativa, 250 g ai/ha, Flood; 0 to 100 scale where 0 is no effect and 100 is complete control; read-out: Rice plant response rating. The essentials: as §2
The subject of experiment [14] is ducksalad (Heteranthera limosa). Put plainly: Test B flooded paddy test. Particulars: Heteranthera limosa, 250 g ai/ha, Flood; 0 to 100 scale where 0 is no effect and 100 is complete control; read-out: Ducksalad plant response rating. The essentials:
as §2

[15] abbreviates: 0 to 100 scale where 0 is no effect and 100 is complete control.
Where [16] appears, read: visual injury rating about 10 d after treatment, 0 to 100 scale (0 no effect, 100 complete control).

For the molecule `Cc1cc([C@H]2CN(C)C(=O)[C@@H]2C(=O)Nc2ccc(F)c(F)c2F)ccc1Br` [Compound 1101], the pest or weed control at 125 g/ha came out at 0% in [1] (setting [15]); 90% in experiment [2] (setting [15]); 90% in experiment [3] (setting [15]); 0% in [4] (setting [15]); 60% in experiment [5] (setting [15]); 30% in [6] (setting [15]). The values for the pest or weed control at 125 g/ha in experiment [7], in experiment [9] and in [10] were 70%, 0% and 50%, respectively. For the same molecule, the pest or weed control at 500 g/ha came out at 20% in experiment [1] (setting [16]); 90% in experiment [2] (setting [16]); 90% in [3] (setting [16]); 40% in experiment [4] (setting [16]); 70% in experiment [5] (setting [16]); 70% in experiment [6] (setting [16]). Moreover, the values for the pest or weed control at 500 g/ha in experiment [7], in [9] and in [10] were 80%, 0% and 60%, respectively. In addition, the plant injury at 125 g/ha in experiment [8] came to 30%. The plant injury at 500 g/ha in experiment [8] was 70%. For the same molecule, the pest or weed control at 250 g/ha in [11] turned out to be 0%; in [12], 30%; in experiment [13], 0%; in experiment [14], 60%.
On to `O=C1NC[C@H](c2ccc(F)c(OC(F)(F)C(F)(F)Br)c2)[C@H]1C(=O)Nc1ccccc1F` [Compound 1134], for which the pest or weed control at 125 g/ha in experiment [1] (setting [15]) was 0%; in experiment [2] (setting [15]), 30%; in [3] (setting [15]) it was 70%; in experiment [4] (setting [15]), 0%; in experiment [5] (setting [15]), 50%; in [6] (setting [15]), 0%. Also, the pest or weed control at 125 g/ha was found to be 60% in experiment [7], 0% in [9] and 20% in experiment [10]. The pest or weed control at 500 g/ha in experiment [1] (setting [15]) came out at 30%; in experiment [2] (setting [15]) it was 80%; in experiment [3] (setting [15]), 90%; in [4] (setting [15]), 70%; in experiment [5] (setting [15]) it was 60%; in [6] (setting [15]), 40%. The results for the pest or weed control at 500 g/ha in [7], in experiment [9] and in [10] were 80%, 30% and 70%, respectively. Besides, in experiment [8], the plant injury at 125 g/ha came out at 20%. Besides, in [8], the plant injury at 500 g/ha was 20%. The pest or weed control at 250 g/ha in experiment [11], in [12], in experiment [13] and in [14] was 0% each time.
